{"source": "paper PMC8945229", "about": "“Development and Biological Characterization of a Novel Selective TrkA Agonist with Neuroprotective Properties against Amyloid Toxicity” (Biomedicines, 2022)", "key": {"[1]": {"assay": "Metabolic stability in human liver microsomes", "assay_type": "in vitro ADME", "details": "1 μM, 0.5 mg/mL microsomes, 1 mM NADPH, t = 60 min", "description": "Human liver microsome (pooled) concentration was set at 0.5 mg/mL and 1 mM NADPH served as a cofactor for oxidative (CYP-mediated) metabolic stability profiling. ENT-A013 was tested at 1 μM. Incubation conditions ensured linear metabolite formation with respect to reaction time and protein concentration. Incubations took place in triplicates at 37 °C in the presence of negative and positive controls (low vs. rapid clearance). Each reaction was terminated after the specified incubation period (60 min) and plates were read on Lionheart FX (BioTek, Winooski, VT, USA). Residual (%) of time zero (ENT-A013 depletion) was determined."}, "[2]": {"tested_on": "CYP1A2, CYP2A6, CYP2B6, CYP2C9, CYP2C19, CYP2D6 and CYP3A4", "assay": "CYP450 catalytic and metabolic activity, seven isoforms", "assay_type": "in vitro ADME, human", "details": "1 μM", "description": "Baculosomes® expressing CYP1A2, CYP2A6, CYP2B6, CYP2C9, CYP2C19, CYP2D6 and CYP3A4 human CYP450 isoenzymes were purchased from Thermo Fisher Scientific (Waltham, MA, USA). All reagents were handled and prepared according to the manufacturer’s protocol. ENT-A013 was tested at 1 μM. Enzymatic activity in the presence of ΕΝΤ-A013 was assessed based on the kinetic model for CYP1A2, CYP2A6, CYP2B6, CYP2C9, CYP2C19, CYP2D6 and CYP3A4 isoforms. Reactions took place in triplicates at 20 °C. Glucose-6-phosphate at 333 mM and glucose-6-phosphate-dehydrogenase at 30 U/mL in 100 mM potassium phosphate, pH 8.0 (regeneration system) converted NADP^+ (10 mM in 100 mM potassium phosphate, pH 8.0) into NADPH to initiate the CYP450 reaction. Upon the addition of the fluorescent substrate, immediately (<2 min), the fluorescence signal was monitored over time at suitable excitation and emission wavelengths by Lionheart FX (BioTek, Winooski, VT, USA) (Table S2). CYP450 inhibition (%) was determined based on the reaction rates (fluorescence intensity changes per unit time). A total of n = 60 measurements per minute were acquired for a total time of t = 60 min. % Inhibition= (1 − X/A) × 100%(1) where: X is the rate observed in the presence of test-compound; A is the rate observed in the presence of negative (solvent, DMSO) control."}, "PC12 cells": {"tested_on": "PC12 cells", "assay": "CellTox assay, serum deprivation-induced cell death", "assay_type": "cell-based", "description": "CellTox assay (G8742, Promega Corporation, Maddison, WI, USA) was used to assess survival of PC12 cells under serum deprivation conditions. PC12 cells were plated in 96-well plates, starved of serum for 4 h and subsequently treated with NGF (100 ng/mL) or ENT-A013 (500 nM) in the presence or absence of TrkA inhibitor GW441756 (20 μM, G-190, Alomone labs, Jerusalem, Israel) for 24 h. CellTox assay reagents and Hoescht (1:10,000, H3570, Invitrogen, Waltham, MA, USA) were added to each well for 30′ and cells were then imaged with a Zeiss AXIO Vert A1 fluorescent microscope (Zeiss, Jena, Germany). CellTox positive cells were normalized to total number of cells for each image."}, "[3]": {"tested_on": "Primary hippocampal neurons", "assay": "TUNEL assay in primary hippocampal neurons treated with oligomeric Aβ", "assay_type": "cell-based, mouse", "details": "5 μM oligomeric Aβ, 500 nM every 24 h, 48 h", "description": "Primary hippocampal neurons were isolated from E17.5 mouse embryos (C57BL/6J, The Jackson Laboratory, Bar Harbor, ME, USA) as previously described and cultured with Neurobasal medium containing 2% B27, 1X GlutaMax, 10 mM HEPES and 1% PenStrep. Cells were maintained in a humified incubator at 37 °C and 5% CO2. For TUNEL assay, cells were left in culture for 16–18 days and then treated with 5 μM oligomeric Aβ along with ENT-A013 (500 nM, every 24 h) for 48 h. Cells were then fixed with 4% PFA and labelled with TUNEL (F. Hoffmann–La Roche Ltd., Basel, Switzerland, cat# 11684795910) following the manufacturer’s protocol. Subsequently, cells were immunostained against Tuj1 and imaged with confocal microscopy. For synaptic plasticity assay, cells were left in culture for 16–18 days and then treated with 5 μM oligomeric Aβ along with ENT-A013 (500 nM) for 4 h. Cells were then fixed with 4% PFA and immunostained against Tuj1 and Synaptophysin (1:1000, PA1-1043, Invitrogen, Waltham, MA, USA), anti-mouse Alexa fluor 488 (1:1000, A-11029, Invitrogen, Waltham, MA, USA) and anti-rabbit Alexa fluor 546 (1:1000, A10040, Invitrogen, Waltham, MA, USA). Images were acquired using confocal microscopy and the total area of synaptophysin positive puncta was measured and normalized to Tuj1 total area. […]"}, "phosphorylated JNK": {"tested_on": "phosphorylated JNK", "assay": "JNK phosphorylation in primary hippocampal neurons treated with oligomeric Aβ (Western blot)", "assay_type": "cell-based, mouse", "details": "500 nM every 24 h, 48 h", "description": "treated with ENT-A013 (500nM) or Neurotrophin-3 (100ng/ml) for 30’ and then subjected to Western Blot against phosphorylated TrkC, Akt and Erk1/2. […]\nphosphorylated any of those. (D) CellTox assay was performed in NIH-3T3-TrkB cells that were starved from serum and treated with ENT-A013 or BDNF for 24hrs. Quantification (E) […]\nnegative control (Serum Free).\nSupplementary Figure S3: Primary DRG neurons were cultured in the presence of ENT-A013 (500nM, supplemented every 48hrs) and a neutralizing antibody against NGF for 5 days and then neurite length was measured by immunostaining against Tuj1 .\nSupplementary Figure S4: Primary hippocampal neurons at 14-16 DIV were treated with oligomeric Aβ and in the presence of ENT-A013 (500nM, supplemented every 24hrs) for 48hrs and then were subjected to Western Blot against phosphorylated JNK. A representative blot […]"}}}
{"smiles": "CC12CCC(O)CC1=CCC1C2CCC2(C)C1CCC21CC1C=CBr", "note": "[ENT-A013, (2′R,3S,17S)-2′-(2-Bromovinyl)-5-Androstene-17,1′-Cyclopropan-3-ol]", "values": [{"measurement": "residual of time zero", "setting": "[1]", "result": 93, "unit": "%"}, {"measurement": "enzyme (catalytic) activity of the seven major CYP450s", "setting": "[2]; relative fluorescence of product", "result": "did not decrease the enzyme (catalytic) activity"}, {"measurement": "CYP450 (%) metabolic activity, residual % of time zero (in words)", "setting": "[2]; t = 0 to t = 60 min", "result": "overall metabolically stable"}, {"measurement": "IC50", "setting": "PC12 cells; Rattus norvegicus, PC-12, serum deprivation, CellTox, read-out: IC50 (anti-apoptotic dose–response)", "result": 167, "unit": "nM"}, {"measurement": "CellTox positive cells normalized to total number of cells", "setting": "PC12 cells; serum deprivation, 24 h, 500 nM", "result": "0.11 ± 0.01"}, {"measurement": "apoptosis (TUNEL)", "setting": "[3]", "result": "29.8% ± 2.5%"}, {"measurement": "phosphorylated JNK levels (in words)", "setting": "phosphorylated JNK", "result": "reduced phosphorylated JNK levels similar to untreated control cells"}]}
